Test results taken from BindingDB's records for doi:10.1021/jm8014537 (Pfizer, 2010).

Molecular target: CYP2D6 (Homo sapiens, UniProt P10635)
Test: Inhibition of CYP2D6 in human liver microsomes

CYP2D6, sequence (P10635 whole entry): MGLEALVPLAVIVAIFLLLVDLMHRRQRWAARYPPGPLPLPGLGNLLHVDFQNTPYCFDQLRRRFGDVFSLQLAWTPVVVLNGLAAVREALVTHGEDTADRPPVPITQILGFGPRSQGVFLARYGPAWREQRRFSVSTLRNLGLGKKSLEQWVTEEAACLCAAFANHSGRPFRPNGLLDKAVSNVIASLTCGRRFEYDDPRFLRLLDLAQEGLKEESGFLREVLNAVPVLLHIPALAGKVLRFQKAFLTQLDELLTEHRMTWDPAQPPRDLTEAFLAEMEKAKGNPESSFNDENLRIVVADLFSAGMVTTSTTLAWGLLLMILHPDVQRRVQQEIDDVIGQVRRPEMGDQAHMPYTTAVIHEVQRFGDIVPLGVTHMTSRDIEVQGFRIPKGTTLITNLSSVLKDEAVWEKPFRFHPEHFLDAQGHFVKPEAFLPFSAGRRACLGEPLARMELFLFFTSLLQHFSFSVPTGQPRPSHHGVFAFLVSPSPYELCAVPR

Structure (SMILES) | IC50
CCC(C#N)(CC)c1ccc(CCC2(C3CCCC3)CC(=O)C(Cc3nc4nc(C)cc(C)n4n3)C(=O)O2)cc1F (configuration not stated) [2-[4-(2-{2-cyclopentyl-5-[(5,7-dimethyl[1,2,4]triazolo[1,5-a]pyrimidin-2-yl)methyl]-4-hydroxy-6-oxo-3,6-dihydro-2H-pyran-2-yl}ethyl)-2-fluorophenyl]-2-ethylbutanenitrile] | > 6 µM
Cc1cc(C)n2nc(CC3C(=O)CC(CCc4ccc(C(C)(C)O)c(F)c4)(C4CCCC4)OC3=O)nc2n1 (configuration not stated) [6-cyclopentyl-3-[(5,7-dimethyl[1,2,4]triazolo[1,5-a]pyrimidin-2-yl)methyl]-6-{2-[3-fluoro-4-(1-hydroxy-1-methylethyl)phenyl]ethyl}-4-hydroxy-5,6-dihydro-2H-pyran-2-one] | > 6 µM
